Data published in patent US20100029615A1, “BENZIMIDAZOLE DERIVATIVES” (priority 2006, published 2010).
Counter-ions that a name gives are not always drawn.

Target: T1, SMO (Mus musculus, UniProt P56726)
T1 construct: endogenous in cells; host or cells: C3H10T1/2 (ATCC #CCL-226)
Experiment: Smoothened (SMO)/Sonic Hedgehog (SHh) Transient Transcriptional Activation Assay (Gli-luciferase reporter in C3H10T1/2 cells)
Assay type: cell-based, murine
Conditions: SHh 250 ng/ml, 20 hrs; for inhibition at 2 µM: C3H 10T1/2, 2 μM test compound, read-out: SMO CELL % INHIBITION @ 2 μM
How it was run: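 Luminescence (Dual-Glo) measured after 20 h co-exposure at 37 °C to 250 ng/ml human SHh and compound at 2 uM down to 2 nM final. Cells were C3H10T1/2 carrying a transfected murine 10× Gli response-element luciferase construct with pEGFP, starved 20 h in 0.5% calf serum beforehand.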

T1 sequence (P56726 33-793): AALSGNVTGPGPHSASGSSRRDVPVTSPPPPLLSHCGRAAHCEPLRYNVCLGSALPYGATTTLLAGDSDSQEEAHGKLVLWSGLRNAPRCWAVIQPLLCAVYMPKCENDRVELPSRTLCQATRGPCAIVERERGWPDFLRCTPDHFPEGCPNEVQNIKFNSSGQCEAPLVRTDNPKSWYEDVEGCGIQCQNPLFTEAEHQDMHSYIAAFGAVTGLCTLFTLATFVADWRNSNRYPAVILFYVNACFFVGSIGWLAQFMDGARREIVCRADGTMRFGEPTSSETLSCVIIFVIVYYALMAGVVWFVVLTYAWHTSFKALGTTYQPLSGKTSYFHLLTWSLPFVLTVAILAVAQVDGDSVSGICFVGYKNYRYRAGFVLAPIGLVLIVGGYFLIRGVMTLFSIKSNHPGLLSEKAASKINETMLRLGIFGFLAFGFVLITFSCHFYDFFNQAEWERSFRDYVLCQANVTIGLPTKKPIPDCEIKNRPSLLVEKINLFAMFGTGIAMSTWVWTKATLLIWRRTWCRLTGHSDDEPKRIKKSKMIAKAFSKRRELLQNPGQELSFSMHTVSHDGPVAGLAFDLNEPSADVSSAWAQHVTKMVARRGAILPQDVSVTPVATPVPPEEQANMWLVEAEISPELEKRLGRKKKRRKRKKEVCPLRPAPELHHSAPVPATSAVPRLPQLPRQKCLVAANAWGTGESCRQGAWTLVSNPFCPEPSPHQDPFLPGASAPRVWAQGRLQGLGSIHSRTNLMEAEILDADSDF

Row | SMILES | inhibition at 2 µM | SMO CELL % INHIBITION @ 2 μM (2 μM test compound, 2 µM)
1 | O=C(Cc1nc2cc(Cl)ccc2[nH]1)NC1CCCC(c2nc3ccccc3[nH]2)C1 (centres unmarked) [Example 144, N-[3-(1H-benzimidazol-2-yl)cyclohexyl]-2-(5-chloro-1H-benzimidazol-2-yl)acetamide HCl] | 105% | –
2 | CCn1nc(C(C)C)cc1C(=O)NC1CCCC(c2nc3ccccc3[nH]2)C1 (centres unmarked) [Example 146, N-[3-(1H-benzimidazol-2-yl)cyclohexyl]-1-ethyl-3-isopropyl-1H-pyrazole-5-carboxamide triflouroacetate] | 61% | –
3 | O=C(NC1CCCC(c2nc3ccccc3[nH]2)C1)c1ccc(O)c(Cl)c1 (centres unmarked) [Example 147, N-[3-(1H-benzimidazol-2-yl)cyclohexyl]-3-chloro-4-hydroxybenz-amide triflouroacetate] | 68% | –
4 | O=C(CCc1nc2ccccc2[nH]1)NC1CCCC(c2nc3ccccc3[nH]2)C1 (centres unmarked) [Example 148, 3-(1H-benzimidazol-2-yl)-N-[3-(1H-benzimidazol-2-yl)cyclohexyl]-propanamide triflouroacetate] | 50% | –
5 | O=C(N[C@@H]1CCC[C@H](c2nc3cc(Br)ccc3[nH]2)C1)c1ccc2c(c1)OCCO2 [Example 149, N-[(1R,3S)-3-(5-bromo-1H-benzimidazol-2-yl)cyclohexyl]-2,3-dihydro-1,4-benzodioxine-6-carboxamide HCl] | 103% | –
6 | O=C(N[C@H]1CCC[C@@H](c2nc3cc(Br)ccc3[nH]2)C1)c1ccc2c(c1)OCCO2 [Example 150, N-[(1S,3R)-3-(5-bromo-1H-benzimidazol-2-yl)cyclohexyl]-2,3-dihydro-1,4-benzodioxine-6-carboxamide HCl] | 45% | –
7 | O=C(N[C@@H]1CCC[C@H](c2nc3cc(C(F)(F)F)ccc3[nH]2)C1)c1ccc2c(c1)OCCO2 [Example 151, N-{(1R,3S)-3-[5-(trifluoromethyl)-1H-benzimidazol-2-yl]cyclohexyl}-2,3-dihydro-1,4-benzodioxine-6-carboxamide HCl] | 106% | –
8 | O=C(N[C@H]1CCC[C@@H](c2nc3cc(C(F)(F)F)ccc3[nH]2)C1)c1ccc2c(c1)OCCO2 [Example 152, N-{(1S,3R)-3-[5-(trifluoromethyl)-1H-benzimidazol-2-yl]cyclohexyl}-2,3-dihydro-1,4-benzodioxine-6-carboxamide HCl] | 80% | –
9 | O=C(NC1CCCC(c2nc3ccccc3[nH]2)C1)c1cc(-c2ccccn2)n[nH]1 (centres unmarked) [Example 153, N-[3-(1H-benzimidazol-2-yl)cyclohexyl]-3-pyridin-2-yl-1H-pyrazole-5-carboxamide triflouroacetate] | 46% | –
10 | O=C(Cn1ccc2ccccc2c1=O)NC1CCCC(c2nc3ccccc3[nH]2)C1 (centres unmarked) [Example 154, N-[3-(1H-benzimidazol-2-yl)cyclohexyl]-2-(1-oxoisoquinolin-2(1H)-yl)acetamide triflouroacetate] | 57% | –
11 | CCc1n[nH]c(C(=O)NC2CCCC(c3nc4ccccc4[nH]3)C2)c1C (centres unmarked) [Example 155, N-[3-(1H-benzimidazol-2-yl)cyclohexyl]-3-ethyl-4-methyl-1H-pyrazol-5-carboxamide triflouroacetate] | 64% | –
12 | Cc1ccn2cc(CCC(=O)NC3CCCC(c4nc5ccccc5[nH]4)C3)nc2c1 (centres unmarked) [Example 156, N-[3-(1H-benzimidazol-2-yl)cyclohexyl]-3-(7-methylimidazo [1,2-a]pyridin-2-yl)propanamide triflouroacetate] | 53% | –
13 | CC(=O)c1ccc(OCC(=O)NC2CCCC(c3nc4ccccc4[nH]3)C2)cc1 (centres unmarked) [Example 157, 2-(4-acetylphenoxy)-N-[3-(1H-benzimidazol-2-yl)cyclohexyl] acetamide triflouroacetate] | 52% | –
14 | O=C(NC1CCCC(c2nc3ccccc3[nH]2)C1)c1ccc2[nH]c(=O)[nH]c(=O)c2c1 (centres unmarked) [Example 158, N-[3-(1H-benzimidazol-2-yl)cyclohexyl]-2,4-dioxo-1,2,3,4-tetrahydroquin-azoline-6-carboxamide triflouroacetate] | 73% | –
15 | Cn1ccnc1-c1ccc(C(=O)NC2CCCC(c3nc4ccccc4[nH]3)C2)cc1 (centres unmarked) [Example 159, N-[3-(1H-benzimidazol-2-yl)cyclohexyl]-4-(1-methyl-1H-imidazol-2-yl)benzamide triflouroacetate] | 78% | –
16 | O=C(NC1CCCC(c2nc3ccccc3[nH]2)C1)c1ccc(-c2cnco2)cc1 (centres unmarked) [Example 160, N-[3-(1H-benzimidazol-2-yl)cyclohexyl]-4-(1,3-oxazol-5-yl)benzamide triflouroacetate] | 72% | –
17 | O=C(NC1CCCC(c2nc3ccccc3[nH]2)C1)c1ccc2snnc2c1 (centres unmarked) [Example 161, N-[3-(1H-benzimidazol-2-yl)cyclohexyl]-1,2,3-benzothiadiazole-5-carboxamide triflouroacetate] | 54% | –
18 | CN(C)S(=O)(=O)CC(=O)NC1CCCC(c2nc3ccccc3[nH]2)C1 (centres unmarked) [Example 162, N-[3-(1H-benzimidazol-2-yl)cyclohexyl]-2-{(dimethylamino)-sulfonyl]-acetamide triflouroacetate] | 71% | –

Row | SMILES | inhibition at 2 µM | SMO CELL % INHIBITION @ 2 μM (2 μM test compound, 2 µM)
19 | O=C(NC1CCCC(c2nc3ccccc3[nH]2)C1)c1ccc(-n2cnnn2)cc1 (centres unmarked) [Example 163, N-[3-(1H-benzimidazol-2-yl)cyclohexyl]-4-(1H-tetrazol-1-yl)benzamide triflouroacetate] | 95% | –
20 | Cn1ccnc1C(=O)NC1CCCC(c2nc3ccccc3[nH]2)C1 (centres unmarked) [Example 164, N-[3-(1H-benzimidazol-2-yl)cyclohexyl]-1-methyl-1H-imidazole-2-carboxamide triflouroacetate] | 106% | –
21 | COc1cc(C(=O)N[C@@H]2CCC[C@H](c3nc4ccccc4[nH]3)C2)ccn1 [Example 165, N-[(1R,3S)-3-(1H-benzimidazol-2-yl)cyclohexyl]-2-methoxyisonico-tinamide HCl] | 63% | –
22 | COc1cc(OC)cc(C(=O)N[C@@H]2CCC[C@H](c3nc4ccccc4[nH]3)C2)c1 [Example 166, N-[(1R,3S)-3-(1H-benzimidazol-2-yl)cyclohexyl]-3,5-dimethoxybenz-amide HCl] | 109% | –
23 | COc1cc(OC)cc(C(=O)N[C@@H]2CCC[C@H](c3nc4ccccc4n3C)C2)c1 [Example 167, 3,5-dimethoxy-N[(1R,3S)-3-(1-methyl-1H-benzimidazol-2-yl)cyclohexyl] benzamide HCl] | 101% | –
24 | Cc1ccc2nc([C@H]3CCC[C@@H](NC(=O)c4ccc5c(c4)OCCO5)C3)[nH]c2c1 [Example 168, N-[(1R,3S)-3-(6-methyl-1H-benzimidazol-2-yl)cyclohexyl]-2,3-dihydro-1,4-benzodioxine-6-carboxamide HCl] | 106% | –
25 | O=C(N[C@@H]1CCC[C@H](c2nc3ccccc3[nH]2)C1)c1cnc(O)c(Cl)c1 [Example 169, N-[(1R,3S)-3-(1H-benzimidazol-2-yl)cyclohexyl]-5-chloro-6-hydroxynicotin-amide HCl] | 93% | –
26 | COc1cc(OC)cc(C(=O)N[C@@H]2CCC[C@H](c3nc4ccc(C(F)(F)F)cc4[nH]3)C2)c1 [Example 170, 3,5-dimethoxy-N-{(1R,3S)-3-[6-(trifluoromethyl)-1H-benzimidazol-2-yl]cyclohexyl} benzamide HCl] | 110% | –
27 | COc1cc(OC)cc(C(=O)N[C@@H]2CCC[C@H](c3nc4ccc(C(F)(F)F)cc4[nH]3)C2)c1 [Example 171, 3,5-dimethoxy-N-{(1R,3S)-3-[6-(trifluoromethyl)-1H-benzimidazol-2-yl]cyclohexyl} benzamide (+)-tartrate] | – | 107.2%
28 | N#Cc1ccc2nc([C@H]3CCC[C@@H](NC(=O)c4ccc5c(c4)OCCO5)C3)[nH]c2c1 [Example 172, N-[(1R,3S)-3-(6-cyano-1H-benzimidazol-2-yl)cyclohexyl]-2,3-dihydro-1,4-benzodioxine-6-carboxamide HCl] | 90% | –
29 | O=C1COc2ccc(C(=O)N[C@@H]3CCC[C@H](c4nc5ccccc5[nH]4)C3)cc2N1 [Example 173, N-[(1R,3S)-3-(1H-benzimidazol-2-yl)cyclohexyl]-3-oxo-3,4-dihydro-2H-1,4-benzoxazine-6-carboxamide HCl] | 97% | –
30 | Cn1cncc1C(=O)N[C@@H]1CCC[C@H](c2nc3ccccc3[nH]2)C1 [Example 174, N-[(1R,3S)-3-(1H-benzimidazol-2-yl)cyclohexyl]-1-methyl-1H-imidazole-5-carboxamide HCl] | 64% | –
31 | Cn1c(C(=O)N[C@@H]2CCC[C@H](c3nc4ccccc4[nH]3)C2)nc2ccccc21 [Example 175, N-[(1R,3S)-3-(1H-benzimidazol-2-yl)cyclohexyl]-1-methyl-1H-benzimidazole-2-carboxamide HCl] | 81% | –
32 | O=C(N[C@@H]1CCC[C@H](c2nc3ccccc3[nH]2)C1)c1nc2ccccc2[nH]1 [Example 176, N-[(1R,3S)-3-(1H-benzimidazol-2-yl)cyclohexyl]-1H-benzimidazole-2-carboxamide HCl] | 57% | –
33 | Cc1cc(C(=O)N[C@@H]2CCC[C@H](c3nc4ccccc4[nH]3)C2)n(C)n1 [Example 177, N-[(1R,3S)-3-(1H-benzimidazol-2-yl)cyclohexyl]-1,3-dimethyl-1H-pyrazole-5-carboxamide HCl] | 73% | –
34 | O=C(N[C@@H]1CCC[C@H](c2nc3ccc(Cl)cc3[nH]2)C1)c1ccc2c(c1)OCCO2 [Example 178, N-[(1R,3S)-3-(6-chloro-1H-benzimidazol-2-yl)cyclohexyl]-2,3-dihydro-1,4-benzodioxine-6-carboxamide HCl] | 110% | –
35 | O=C(N[C@H]1CCC[C@@H](c2nc3ccc(Cl)cc3[nH]2)C1)c1ccc2c(c1)OCCO2 [Example 179, N-[(1S,3R)-3-(6-chloro-1H-benzimidazol-2-yl)cyclohexyl]-2,3-dihydro-1,4-benzodioxine-6-carboxamide HCl] | 106% | –
